According to patent US6670446B1, “N1 modified glycopeptides” (Eli Lilly and Company, priority 1998, dated 2003):

What was measured:
Type in all cases: cell-based
[1] = tested on: Staphylococcus aureus SA1199A; assay: MIC, standard broth micro-dilution assay, SA 1199A
Procedure: (§1) The antibacterial efficacy of the present compounds is illustrated by Table III. The minimal inhibitory concentrations (MICs) were determined using a standard broth micro-dilution assay.

[2] = tested on: Enterococcus faecalis 276; assay: MIC, standard broth micro-dilution assay, EF 276
Procedure: as §1

[3] = tested on: Staphylococcus aureus X778; assay: MIC, standard broth micro-dilution assay, SA X778
Procedure: as §1

[4] = tested on: Staphylococcus aureus 447; assay: MIC, standard broth micro-dilution assay, SA 447
Procedure: as §1

[5] = tested on: Staphylococcus haemolyticus 105; assay: MIC, standard broth micro-dilution assay, SH 105
Procedure: as §1

[6] = tested on: Staphylococcus epidermidis 270; assay: MIC, standard broth micro-dilution assay, SE 270
Procedure: as §1

[7] = tested on: Staphylococcus aureus 489; assay: MIC, standard broth micro-dilution assay, SA 489
Procedure: as §1

[8] = tested on: Enterococcus faecium 180; assay: MIC, standard broth micro-dilution assay, EF 180
Procedure: as §1

[9] = tested on: Resistant Enterococcus faecium and faecalis; assay: MIC, standard broth micro-dilution assay, Resistant; settings: geometric mean of 4-6 isolates
Procedure: as §1

[10] = tested on: Staphylococcus aureus S13E
Procedure: as §1

[11] = tested on: Staphylococcus aureus 446; assay: MIC, standard broth micro-dilution assay, SA 446
Procedure: as §1

[12] = tested on: Haemophilus influenzae RD; assay: MIC, standard broth micro-dilution assay, HFRD
Procedure: as §1

[13] = tested on: Enterococcus faecalis 2041; assay: MIC, standard broth micro-dilution assay, EF 2041
Procedure: as §1

[14] = tested on: Escherichia coli EC14; assay: MIC, standard broth micro-dilution assay, EC 14
Procedure: as §1

[15] = tested on: Staphylococcus aureus SA1199; assay: MIC, standard broth micro-dilution assay, SA 1199
Procedure: as §1

[16] = tested on: Staphylococcus aureus 491; assay: MIC, standard broth micro-dilution assay, SA 491
Procedure: as §1

[17] = tested on: Staphylococcus haemolyticus 415; assay: MIC, standard broth micro-dilution assay, SH 415
Procedure: as §1

[18] = tested on: Sensitive Enterococcus faecium and faecalis; assay: MIC, standard broth micro-dilution assay, Sensitive; settings: geometric mean of 4-6 isolates
Procedure: as §1

[19] = tested on: Enterococcus gallinarum 245; assay: MIC, standard broth micro-dilution assay, EG 245
Procedure: as §1

[20] = tested on: Enterococcus faecium 180-1; assay: MIC, standard broth micro-dilution assay, EF 180-1
Procedure: as §1

[21] = tested on: Staphylococcus aureus X400; assay: MIC, standard broth micro-dilution assay, SA X400
Procedure: as §1

| SMILES | minimal inhibitory concentration (MIC), SA 1199A [1] | minimal inhibitory concentration (MIC), EF 276 [2] | minimal inhibitory concentration (MIC), SA X778 [3] | minimal inhibitory concentration (MIC), SA 447 [4] | minimal inhibitory concentration (MIC), SH 105 [5] | minimal inhibitory concentration (MIC), SE 270 [6] | minimal inhibitory concentration (MIC), SA 489 [7] | minimal inhibitory concentration (MIC), EF 180 [8] | minimal inhibitory concentration (MIC), Resistant [9] | minimal inhibitory concentration (MIC), SA S13E [10] | minimal inhibitory concentration (MIC), SA 446 [11] | minimal inhibitory concentration (MIC), HFRD [12] | minimal inhibitory concentration (MIC), EF 2041 [13] | minimal inhibitory concentration (MIC), EC 14 [14] | minimal inhibitory concentration (MIC), SA 1199 [15] | minimal inhibitory concentration (MIC), SA 491 [16] | minimal inhibitory concentration (MIC), SH 415 [17] | minimal inhibitory concentration (MIC), Sensitive [18] | minimal inhibitory concentration (MIC), EG 245 [19] | minimal inhibitory concentration (MIC), EF 180-1 [20] | further results |
| --- | --- | --- | --- | --- | --- | --- | --- | --- | --- | --- | --- | --- | --- | --- | --- | --- | --- | --- | --- | --- | --- |
| CC1OC(OC2C(Oc3c4cc5cc3Oc3ccc(cc3Cl)[C@@H](O)[C@@H](NC(=O)[C@H]3CCCN3C(=O)OC(C)(C)C)C(=O)N[C@@H](CC(N)=O)C(=O)N[C@H]5C(=O)N[C@H]3C(=O)NC(C(=O)N[C@H](C(=O)O)c5cc(O)cc(O)c5-c5cc3ccc5O)[C@H](OC3CC(C)(N)C(O)C(C)O3)c3ccc(c(Cl)c3)O4)OC(CO)C(O)C2O)CC(C)(N)C1O (stereo partly drawn) [Example 24, N^1-(N-BOC-D-proline) derivative of desleucylA82846B] | 1 | 1 | 1 | 4 | 16 | 2 | 2 | >64 | >128 | 2 | 4 | >64 | 1 | >64 | 2 | 1 | 32 | 4 | 8 | 1 | minimal inhibitory concentration (MIC), SA X400 [21]: 2 |
| CC1OC(OC2c3ccc(c(Cl)c3)Oc3cc4cc(c3OC3OC(CO)C(O)C(O)C3OC3CC(C)(NCc5ccc(-c6ccccc6)cc5)C(O)C(C)O3)Oc3ccc(cc3Cl)C(O)C(NC(=O)C(CCCCNC(=O)OC(C)(C)C)NC(=O)OC(C)(C)C)C(=O)NC(CC(N)=O)C(=O)NC4C(=O)NC3C(=O)NC2C(=O)NC(C(=O)O)c2cc(O)cc(O)c2-c2cc3ccc2O)CC(C)(N)C1O [Example 19, N^1-(N^1N′-DIBOC-D-lysine) derivative of N^DISACC-(p-phenylbenzyl)desleucylA82846B] | no growth | 2 | 2 | 2 | 4 | 2 | 1 | 8 | 64 | 2 | 2 | >64 | 0.5 | >64 | 2 | 1 | 4 | 2.6 | 2 | 1 | minimal inhibitory concentration (MIC), SA X400 [21]: 2 |
| CC1OC(OC2C(Oc3c4cc5cc3Oc3ccc(cc3Cl)[C@@H](O)[C@@H](NC(=O)CCCCCCCc3ccccc3)C(=O)N[C@@H](CC(N)=O)C(=O)N[C@H]5C(=O)N[C@H]3C(=O)NC(C(=O)N[C@H](C(=O)O)c5cc(O)cc(O)c5-c5cc3ccc5O)[C@H](OC3CC(C)(N)C(O)C(C)O3)c3ccc(c(Cl)c3)O4)OC(CO)C(O)C2O)CC(C)(N)C1O (stereo partly drawn) [Example 2, N^1-(8-phenyl-n-octanoyl)desleucylA82846B] | ≦.06 | ≦.06 | ≦.06 | ≦.06 | 1 | 0.125 | ≦.06 | 8 | >128 | ≦.06 | ≦.06 | no growth | ≦.06 | >64 | 0.125 | ≦.06 | 8 | 1.5 | 0.25 | ≦.06 | minimal inhibitory concentration (MIC), SA X400 [21]: ≦.06 |
| CC1OC(OC2c3ccc(c(Cl)c3)Oc3cc4cc(c3OC3OC(CO)C(O)C(O)C3OC3CC(C)(NCc5ccc(-c6ccccc6)cc5)C(O)C(C)O3)Oc3ccc(cc3Cl)C(O)C(NC(=O)C(N)Cc3ccc(Cl)cc3)C(=O)NC(CC(N)=O)C(=O)NC4C(=O)NC3C(=O)NC2C(=O)NC(C(=O)O)c2cc(O)cc(O)c2-c2cc3ccc2O)CC(C)(N)C1O [Example 33, N^1-[L-3-(p-chlorophenyl)alanine] derivative of N^DISACC-(p-phenylbenzyl)desleucylA82846B] | 0.25 | 4 | 1 | 1 | 0.5 | 0.25 | 2 | 4 | 27 | 1 | 1 | >64 | 2 | >64 | 0.5 | 0.5 | 0.5 | 2.6 | 1 | 0.5 | minimal inhibitory concentration (MIC), SA X400 [21]: 1 |
| CC1OC(OC2c3ccc(c(Cl)c3)Oc3cc4cc(c3OC3OC(CO)C(O)C(O)C3OC3CC(C)(NCc5ccc(-c6ccccc6)cc5)C(O)C(C)O3)Oc3ccc(cc3Cl)C(O)C(NC(=O)C3CCCN3)C(=O)NC(CC(N)=O)C(=O)NC4C(=O)NC3C(=O)NC2C(=O)NC(C(=O)O)c2cc(O)cc(O)c2-c2cc3ccc2O)CC(C)(N)C1O [Example 12, N^1-D-proline derivative of N^DISACC-(p-phenylbenzyl)desleucylA82846B] | 0.25 | 1 | 0.25 | 0.5 | 0.125 | 0.125 | 2 | 1 | 2.8 | 2 | 2 | 32 | 0.25 | >64 | 1 | 0.5 | 0.25 | 0.19 | 0.25 | ≦.06 | minimal inhibitory concentration (MIC), SA X400 [21]: 1 |
